Measurements from publication PMC6044835, “Expression, Purification, and Biochemical Characterization of the Flavocytochrome P450 CYP505A30 from Myceliophthora thermophila” (ACS Omega, 2017).
Several values for one entry are separate records, joined by “and”; a condition that tells them apart may be missing. Equal values may be shown once. Read-outs that look alike come from different tables or passages of the source.

Legend:
CYP505A30 [1] = molecular target: T1, CYP505A30 (Thermothelomyces thermophilus, UniProt G2QDZ3); experiment: UV–visible spectral binding titration with intact CYP505A30; conditions: for HS (%): extent of HS heme iron accumulated, intact CYP505A30, estimated to nearest 5%
CYP505A30 heme domain [2] = molecular target: T2, CYP505A30 heme domain (Thermothelomyces thermophilus, UniProt G2QDZ3); experiment: UV–visible spectral binding titration with CYP505A30 heme domain; conditions: for HS (%): extent of HS heme iron accumulated, heme domain, estimated to nearest 5%
CYP505A30 [3] = molecular target: T1, CYP505A30; experiment: Stopped-flow kinetics of flavin reduction by NAD(P)H; type: biochemical, Myceliophthora thermophila
CYP505A30 [4] = molecular target: T1, CYP505A30
CYP505A30 [5] = molecular target: T1, CYP505A30; experiment: UV-visible spectral binding titration of imidazole-type inhibitors (Soret red shift by distal heme iron coordination) to intact CYP505A30 in 50 mM potassium phosphate pH 7.0 (25 °C stated for the substrate titrations), hyperbolic fit for bifonazole.; set-up: gene MYCTH_101224; intact CYP505A30, amino acids 1-1080, N-terminal hexahistidine tag (pET15b), expressed in E. coli; conditions: read-out: KD values (azole/imidazole inhibitors)
Description: Figure 5 UV–visible spectroscopic analysis of CYP505A30 and its heme domain. […] The sodium dithionite-reduced ferrous form (dotted line) has its Soret maximum at 411 nm and a single visible region absorbance band at 546 nm. The ferrous, CO-bound form (thin solid line) has its Soret maximum at 450 nm and a visible band at 550 nm. The ferric heme NO-bound form (dashed line) has a Soret maximum at 434 nm and visible region bands at 543 and 573 nm. […] For clarity, the visible region is also shown at 5× magnification. […] The substrate-free heme domain (4.9 μM) is shown with a thick solid line. […] Each ΔAbs point is derived from the value of the difference peak absorbance maximum (at 388 nm) minus the difference trough absorbance minimum (at 417 nm). […]
The wavelengths of the absorbance minimum and maximum were identified from the difference spectra, and a maximal induced absorbance change (ΔAmax) at each point in the titration was determined by subtracting the absorbance at the wavelength minimum from that at the absorbance maximum, using the same wavelength pair throughout each titration. ΔAmax values were then plotted against ligand concentration, and data were fitted using either a hyperbolic (Michaelis–Menten) function or the Morrison function for tight-binding ligands, to determine dissociation constants (KD values), as described previously.[38],[52]

CYP505A30 [6] = molecular target: T1, CYP505A30; experiment: Steady-state fatty acid-dependent NADPH oxidation
P450 BM3 [7] = conditions: P450 BM3, similar conditions; cited from earlier work
P450 BM3 [8] = test system: P450 BM3; set-up: method as in PMID 1727637; conditions: cited from earlier work
CYP505A30 [9] = molecular target: T1, CYP505A30; conditions: CYP505A30, GC–MS
CYP505A30 heme domain [10] = molecular target: T2, CYP505A30 heme domain
[11] = molecular target: Myceliophthora thermophila flavocytochrome P450 CYP505A30 (P450-CPR fusion enzyme), intact (Myceliophthora thermophila); experiment: SEC-MALS; 5 mg protein samples in buffer A (50 mM potassium phosphate, pH 7.0) containing 200 mM KCl; integrated Superdex 200 gel filtration followed at once by a DAWN EOS MALLS detector; monomer and dimer of the intact enzyme
CYP505A30 [12] = molecular target: T1, CYP505A30; conditions: for kcat: reduction of the electron acceptor, 25 °C
[13] = substrate: CCCCCCCCCCCCCCC(=O)O; experiment: purified protein, by the assay type; conditions: other: fatty acid-induced NADPH oxidation, 25 °C
[14] = substrate: CCCCC/C=C\C/C=C\C/C=C\C/C=C\CCCC(=O)O; experiment: purified protein, by the assay type; conditions: other: fatty acid-induced NADPH oxidation, 25 °C
[15] = substrate: CCCCCCCCCCCC(=O)O; experiment: purified protein, by the assay type; conditions: other: fatty acid-induced NADPH oxidation, 25 °C
[16] = substrate: CCCCCCCCCCCCCC(=O)O; experiment: purified protein, by the assay type; conditions: other: fatty acid-induced NADPH oxidation, 25 °C
[17] = KD, substrate binding to intact CYP505A30, heme absorbance change, 25 °C
[18] = fatty acid-dependent NADPH oxidation
[19] = fatty acid-induced NADPH oxidation, 25 °C, 200 μM NADPH

c1ccc(-n2ccnc2)cc1 [1-phenylimidazole] gave a Kd (CYP505A30 [1]; KD, imidazole-based inhibitors, distal coordination of heme iron, intact CYP505A30) of 3.4 ± 0.2 µM.

In the case of CCCCCCCCCCCCCCCC(=O)NCC(=O)O [N-palmitoylglycine], the “HS (%)” value (CYP505A30 [1]) is reported as 95% and the “HS (%)” value (CYP505A30 heme domain [2]) is reported as 75%.

With NC(=O)C1=CN([C@@H]2O[C@H](COP(=O)(O)OP(=O)(O)OC[C@H]3O[C@@H](n4cnc5c(N)ncnc54)[C@H](O)[C@@H]3O)[C@@H](O)[C@H]2O)C=CC1 [NADH, reduced nicotinamide adenine dinucleotide] the klim flavin reduction (CYP505A30 [3]; 10 °C) was 42.0 ± 3.2 s^–1.

For NC(=O)C1=CN([C@@H]2O[C@H](COP(=O)(O)OP(=O)(O)OC[C@H]3O[C@@H](n4cnc5c(N)ncnc54)[C@H](OP(=O)(O)O)[C@@H]3O)[C@@H](O)[C@H]2O)C=CC1 [NADPH, reduced nicotinamide adenine dinucleotide phosphate], the “gradient of kobs vs temperature” value (CYP505A30 [3]; 10 to 35 °C, 1 mM NADPH) was 14.5 ± 1.5 s^–1 °C^–1, the klim flavin reduction (CYP505A30 [3]; 10 °C) was roughly 82 s^–1 and the kobs flavin reduction (CYP505A30 [3]; 10 °C, across [NADPH] range up to 1.2 mM) was 82.4 ± 9.1 s^–1. The klim flavin reduction (CYP505A30 [3]; 25 °C) was roughly 250 s^–1 and the “kobs flavin reduction (highest rate constant)” value (CYP505A30 [3]; 35 °C, 1 mM NADPH) was 441 ± 11 s^–1.

With c1ccc(-c2ccc(C(c3ccccc3)n3ccnc3)cc2)cc1 (stereo not shown) [bifonazole] the Kd (CYP505A30 [1]; KD) was 69 µM and 69.1 µM.

In the case of CCCCCCCCCC(=O)O [decanoic acid], the Kd (CYP505A30 [1]; KD) is reported as 21.1 ± 2 µM and the “HS (%)” value (CYP505A30 [4]) is reported as 30%.

Clc1ccc(COC(Cn2ccnc2)c2ccc(Cl)cc2Cl)cc1 (stereo not shown) [econazole] showed a Kd (CYP505A30 [1]; KD) of 10 ± 0.9 µM.

For CCCCCCCCCCCCCCCCC(=O)O [heptadecanoic acid], the Kd (CYP505A30 [1]) was 4.1 ± 0.7 µM, the “HS (%)” value (CYP505A30 [1]) was 10% and the Kd (CYP505A30 heme domain [2]) was 8.7 ± 0.8 µM. For the same molecule, the “HS (%)” value (CYP505A30 heme domain [2]) was 20%.

In the case of CCCCCCCCCCCCCCCC(=O)O [hexadecanoic acid], the Kd (CYP505A30 [1]; [17]) is reported as 10.5 ± 0.2 µM, the “HS (%)” value (CYP505A30 [1]) is reported as 80% and the Kd (CYP505A30 heme domain [2]) is reported as 1 ± 0.4 µM. The “HS (%)” value (CYP505A30 heme domain [2]) was 55%.

Work on c1c[nH]cn1 [imidazole] yielded a Kd (CYP505A30 [5]) of 723 µM.

In the case of CCCCCCCCCCCCCCCCCC(=O)O [octadecanoic acid], the Kd (CYP505A30 [1]) is reported as 11.9 ± 1 µM, the “HS (%)” value (CYP505A30 [1]) is reported as 15% and the Kd (CYP505A30 heme domain [2]) is reported as 5 ± 0.7 µM. The “HS (%)” value (CYP505A30 heme domain [2]) was 10%.

In the case of CCCCCCCCCCCCCCC(=O)O [pentadecanoic acid], the Kd (CYP505A30 [1]) is reported as 4.4 ± 0.6 µM, the “HS (%)” value (CYP505A30 [1]) is reported as 85% and the Kd (CYP505A30 heme domain [2]) is reported as 1.1 ± 0.3 µM. For the same molecule, the “HS (%)” value (CYP505A30 heme domain [2]) was 90%, the “KD (Michaelis–Menten fit of steady-state NADPH oxidation)” value (CYP505A30 [6]; [18]) was 7.8 µM and the kcat (CYP505A30 [6]; [18]) was roughly 450 min^–1.

For CCCCCCCCCCCCCC(=O)O [tetradecanoic acid], the kcat (P450 BM3 [7]) is listed as 30.8 ± 1.5 s^–1, the Kd (CYP505A30 [1]; [17]) is listed as 7.4 ± 0.2 µM and the “HS (%)” value (CYP505A30 [1]) is listed as 80%. For the same molecule, the Kd (CYP505A30 heme domain [2]) was 3.9 ± 0.3 µM, the “HS (%)” value (CYP505A30 heme domain [2]) was 85% and the “ω-1 hydroxylated product proportion” value (P450 BM3 [8]) was 58%. For the same molecule, the “ω-2 hydroxylated product proportion” value (P450 BM3 [8]) was 21%, the “ω-3 hydroxylated product proportion” value (P450 BM3 [8]) was 21% and the kcat (CYP505A30 [6]; [19]) was 1.21 ± 0.1 s^–1. The “ω-1 hydroxylated product proportion” value (CYP505A30 [9]) was 63%, the “ω-2 hydroxylated product proportion” value (CYP505A30 [9]) was roughly 28% and the “ω-3 hydroxylated product proportion” value (CYP505A30 [9]) was 9%. For the same molecule, the “ω-1 hydroxylated product proportion” value (CYP505A30 [9]; listed as myristic acid) was “approximately 63%”.

With CCCCCCCCCCCCC(=O)O [tridecanoic acid] the “HS (%)” value (CYP505A30 heme domain [10]) was 30%, the Kd (CYP505A30 [1]; [17]) was 2.7 ± 0.3 µM and the “HS (%)” value (CYP505A30 [4]) was 65%. It also gave a Kd (CYP505A30 heme domain [2]) of 4.8 ± 0.3 µM and a kcat (CYP505A30 [6]; [19]) of 5.0 ± 0.3 s^–1.

With “Myceliophthora thermophila flavocytochrome P450 CYP505A30 (P450-CPR fusion enzyme), intact” the stoichiometry N [11] was 2.

With “cytochrome c: Cytochrome c (horse heart; Sigma-Aldrich), electron acceptor substrate for CPR enzymes” the “fold slower kcat than the BM3 enzyme” value (CYP505A30 [12]; BM3 under similar conditions) was “approximately 7.5 fold”, the Km (CYP505A30 [12]; read-out: KM (electron acceptor), NADPH as electron donor) was 79.3 ± 10.3 µM and the kcat (CYP505A30 [12]; NADH as electron donor) was 29.5 ± 2.4 s^–1. For the same molecule, the kcat (CYP505A30 [12]; NADPH as electron donor) was 29.7 ± 0.7 s^–1.

B1: CYP505A30 (Thermothelomyces thermophilus ATCC 42464) (protein)
chain: MADKTTETVPIPGPPGLPLVGNALAFDSELPLRTFQEFAEEYGEIYRLTLPTGTTLVVSSQALVHELCDDKRFKKPVAAALAEVRNGVNDGLFTAREEEPNWGIAHRILMPAFGPASIQGMFTEMHEIASQLALKWARHGPDTPIFVTDDFTRLTLDTLALCTMNFRFNSYYHDELHPFINAMGNFLTESGARAMRPAITSIFHQAANRKYWEDIEVLRKTAQGVLDTRRKHPTNRKDLLSAMLDGVDAKTGQKLSDSSIIDNLITFLIAGHETTSGLLSFAFYLLIKHQDAYRKAQEEVDRVIGKGPIKVEHIKKLPYIAAVLRETLRLCPTIPIINRAAKQDEVIGGKYAVAKDQRLALLLAQSHLDPAVYGETAKQFIPERMLDENFERLNREYPDCWKPFGTGMRACIGRPFAWQEAVLVMAMLLQNFDFVLHDPYYELHYKQTLTTKPKDFYMRAILRDGLTATELEHRLAGNAASVARSGGGGGGPSKPTAQKTSPAEAKPMSIFYGSNTGTCESLAQRLATDAASHGYAAAAVEPLDTATEKLPTDRPVVIITASFEGQPPDNAAKFCGWLKNLEGDELKNVSYAVFGCGHHDWSQTFHRIPKLVHQTMKAHGASPICDEGLTDVAEGNMFTDFEQWEDDVFWPAVRARYGAAGAVAETEDAPGSDGLNIHFSSPRSSTLRQDVREATVVGEALLTAPDAPPKKHIEVQLPDGATYKVGDYLAVLPVNSKESIGRVMRKFQLSWDSHVTIASDRWTALPTGTPVPAYDVLGSYVELSQPATKRGILRLADAAEDEATKAELQKLAGDLYTSEISLKRASVLDLLDRFPSISLPFGTFLSLLPPIRPRQYSISSSPLNDPSRATLTYSLLDSPSLANPSRRFVGVATSYLSSLVRGDKLLVSVRPTHTAFRLPDEDKMGETAIICVGAGSGLAPFRGFIQERAALLAKGTQLAAALLFYGCRSPEKDDLYRDEFDKWQESGAVDVRRAFSRVDSDDTEARGCRHVQDRLWHDREEVKALWDRGARVYVCGSRQVGEGVKTAMGRIVLGEEDAEDAISKWYETVRNDRYATDVFD
For B1, the Km [13] was 7.8 ± 2.1 µM, the kcat [13] was 7.5 ± 0.7 s⁻¹ and the kcat/Km [13] was 960000 M⁻¹ s⁻¹. For the same molecule, the Km [14] was 9.2 ± 0.5 µM, the kcat [14] was 2 ± 0.1 s⁻¹ and the kcat/Km [14] was 220000 M⁻¹ s⁻¹. It also gave a Km [15] of 21.2 ± 2.4 µM, a kcat [15] of 4.8 ± 0.2 s⁻¹ and a kcat/Km [15] of 230000 M⁻¹ s⁻¹. For the same molecule, the Km [16] was 7.7 ± 1.9 µM, the kcat [16] was 1.2 ± 0.1 s⁻¹ and the kcat/Km [16] was 160000 M⁻¹ s⁻¹.
